Results reported in PubChem BioAssay AID1794804 (Yongcheng Song lab at Baylor College of Medicine, 2022).
Activity calls are given as the source filed them.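 Rule for the calls: active = inhibition above 55% when tested at 5 µM; inactive = the rest.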

Target: Protein AF-9 (Homo sapiens) (UniProt P42568)
Assay: inhibitors of AF9 AHD–DOT1L interaction, biochemical, AlphaLISA, percent inhibition, MBP-tagged AHD (AID 1794804)
Conditions: MBP-AF9 AHD / biotin-DOT1L peptide binding

Sequence of Protein AF-9 (Homo sapiens) (P42568 whole entry, looked up): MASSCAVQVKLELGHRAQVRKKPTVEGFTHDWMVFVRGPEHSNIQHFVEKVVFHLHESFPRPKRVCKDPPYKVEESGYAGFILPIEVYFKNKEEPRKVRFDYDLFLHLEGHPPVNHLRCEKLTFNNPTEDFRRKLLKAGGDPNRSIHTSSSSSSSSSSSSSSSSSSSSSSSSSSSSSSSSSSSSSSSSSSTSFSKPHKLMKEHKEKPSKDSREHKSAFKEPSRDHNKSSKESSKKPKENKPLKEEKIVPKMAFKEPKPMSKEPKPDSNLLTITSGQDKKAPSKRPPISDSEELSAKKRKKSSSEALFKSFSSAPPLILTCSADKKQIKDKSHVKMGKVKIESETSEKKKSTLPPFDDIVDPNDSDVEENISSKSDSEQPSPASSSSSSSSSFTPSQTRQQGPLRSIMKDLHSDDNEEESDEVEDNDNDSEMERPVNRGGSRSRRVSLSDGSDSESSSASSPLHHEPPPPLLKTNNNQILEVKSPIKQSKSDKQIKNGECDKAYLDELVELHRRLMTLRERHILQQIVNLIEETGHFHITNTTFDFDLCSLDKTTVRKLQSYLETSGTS

outcome | Compound
inactive | O=C(NCC1CCNCC1)c1cc2ccc(-c3ccc(CCO)cc3)cc2[nH]1
inactive | CC(C)(C)c1ccc(-c2ccc3cc(C(=O)NCC4CCNCC4)sc3c2)cc1
inactive | O=C(NCC1CCNCC1)c1cc2ccc(-c3cccc(-c4ccccc4)c3)cc2o1
inactive | O=C(NCC1CCNCC1)c1cc2ccc(-c3ccc(C4CCCCC4)cc3)cc2o1
inactive | N#Cc1ccc(-c2ccc3cc(C(=O)NCC4CCNCC4)oc3c2)cc1
inactive | N#Cc1ccc(-c2ccc3sc(C(=O)NCC4CCNCC4)cc3c2)cc1
inactive | O=C(NCC1CCNCC1)c1cc2ccc(-c3ccc(N4CCNCC4)cc3)cc2[nH]1
inactive | CC(C)(C)c1ccc(-c2ccc3sc(C(=O)NCC4CCNCC4)cc3c2)cc1

Same assay, conditions: MBP-AF9 AHD / biotin-DOT1L peptide binding, at 5 µM, stronger effect = higher value

inhibition | Compound
0% (inactive) | O=C(NCC1CCNCC1)c1cc2ccc(-c3ccc(CO)cc3)cc2s1
50% (inactive) | O=C(NCC1CCNCC1)c1cc2ccc(-c3ccc(Cl)cc3)cc2s1
59% | O=C(NCC1CCNCC1)c1coc2cc(-c3ccc(N4CCCCC4)cc3)ccc12
21% (inactive) | O=C(NCC1CCNCC1)c1cc2ccc(-c3ccc(F)cc3)cc2s1
47% (inactive) | Cc1ccc(-c2ccc3cc(C(=O)NCC4CCNCC4)sc3c2)cc1
0% (inactive) | O=C(NCC1CCNCC1)c1cc2ccc(-c3ccc(O)cc3)cc2s1
93% | O=C(NCC1CCNCC1)c1cc2ccc(Nc3ccc(N4CCCCC4)cc3)cc2o1
14% (inactive) | O=C(NCC1CCNCC1)c1cc2ccc(N3CCC(N4CCCCC4)CC3)cc2s1
0% (inactive) | O=C(NCC1CCNCC1)c1cc2cc(-c3ccc(C(=O)N4CCCC4)cc3)ccc2s1
40% (inactive) | O=C(NCC1CCNCC1)c1cc2ccc(-c3ccc(N4CCOCC4)cc3)cc2s1
31% (inactive) | O=C(NCC1CCNCC1)c1cc2cc(-c3ccc(C(=O)N4CCCCC4)cc3)ccc2s1
45% (inactive) | O=C(NCC1CCNCC1)c1cc2ccc(-c3ccc(CN4CCCCC4)cc3)cc2s1
8% (inactive) | O=C(NCC1CCNCC1)c1cc2ccc(-c3ccc(C(=O)N4CCCCC4)cc3)cc2s1
5% (inactive) | O=C(NCC1CCNCC1)c1cc2ccc(-c3ccc(C(=O)N4CCC(N5CCCC5)CC4)cc3)cc2s1
0% (inactive) | O=C(NCC1CCNCC1)c1cc2ccc(-c3ccc(C(=O)N4CCCC4)cc3)cc2s1
43% (inactive) | COc1ccc(-c2ccc3cc(C(=O)NCC4CCNCC4)sc3c2)cc1
20% (inactive) | O=C(NCC1CCNCC1)c1cc2ccc(N3CCC(N4CCCC4)CC3)cc2s1
0% (inactive) | O=C(NCC1CCNCC1)c1cc2ccc(-c3ccc(C(=O)N4CCC(N5CCCCC5)CC4)cc3)cc2o1
0% (inactive) | O=C(NCC1CCNCC1)c1cc2ccc(-c3ccc(C(=O)N4CCC(N5CCCCC5)CC4)cc3)cc2s1
43% (inactive) | O=C(NCC1CCNCC1)c1c[nH]c2ccc(-c3ccc(N4CCCCC4)cc3)cc12

The remaining lines, values behind:

Compound | inhibition
CC(C)(C)c1ccc(-c2ccc3[nH]c(C(=O)NCC4CCNCC4)cc3c2)cc1 | 13% (inactive)
NCc1ccc(-c2ccc3cc(C(=O)NCC4CCNCC4)[nH]c3c2)cc1 | 11% (inactive)
CN1CCN(c2ccc(-c3ccc4cc(C(=O)NCC5CCNCC5)oc4c3)cc2)CC1 | 32% (inactive)
O=C(NCC1CCNCC1)c1cc2ccc(-c3ccc(N4CCOCC4)cc3)cc2[nH]1 | 29% (inactive)
O=C(NCC1CCNCC1)c1cc2ccc(-c3ccc(-c4ccccc4)cc3)cc2o1 | 0% (inactive)
CC(C)(C)c1ccc(Nc2ccc3sc(C(=O)NCC4CCNCC4)cc3c2)cc1 | 45% (inactive)
CC(C)(C)c1cccc(-c2ccc3cc(C(=O)NCC4CCNCC4)[nH]c3c2)c1 | 17% (inactive)
O=C(NCC1CCNCC1)c1cc2ccc(Nc3ccc(OC(F)(F)F)cc3)cc2o1 | 23% (inactive)
N#CCc1ccc(-c2ccc3cc(C(=O)NCC4CCNCC4)sc3c2)cc1 | 50% (inactive)
O=C(NCC1CCNCC1)c1cc2ccc(-c3ccc(OC(F)(F)F)cc3)cc2s1 | 14% (inactive)
N#Cc1ccc(-c2ccc3cc(C(=O)NCC4CCNCC4)sc3c2)cc1F | 26% (inactive)
CC(=O)c1ccc(-c2ccc3cc(C(=O)NCC4CCNCC4)[nH]c3c2)cc1 | 37% (inactive)
NC(=O)c1ccc(-c2ccc3cc(C(=O)NCC4CCNCC4)sc3c2)cc1 | 0% (inactive)
O=C(NCC1CCNCC1)c1cc2ccc(-c3ccc(C(=O)N4CCCCC4)cc3)cc2o1 | 0% (inactive)
CS(=O)(=O)c1ccc(-c2ccc3cc(C(=O)NCC4CCNCC4)oc3c2)cc1 | 19% (inactive)
O=C(NCc1ccc(-c2ccc3cc(C(=O)NCC4CCNCC4)oc3c2)cc1)OCc1ccccc1 | 27% (inactive)
CS(=O)(=O)c1ccc(-c2ccc3cc(C(=O)NCC4CCNCC4)sc3c2)cc1 | 49% (inactive)
O=C(NCC1CCNCC1)c1cc2cc(-c3ccc(N4CCNCC4)cc3)ccc2[nH]1 | 36% (inactive)
CCN(CC)c1ccc(-c2ccc3cc(C(=O)NCC4CCNCC4)sc3c2)cc1 | 25% (inactive)

Compound | inhibition
O=C(NCC1CCNCC1)c1cc2ccc(-c3ccc4c(c3)OCCO4)cc2o1 | 33% (inactive)
O=C(NCC1CCNCC1)c1cc2ccc(Oc3ccc(Oc4ccc(Cl)cc4)cc3)cc2o1 | 20% (inactive)
O=C(NCC1CCNCC1)c1cc2ccc(-c3ccc(C(=O)N4CCCC4)cc3)cc2o1 | 1% (inactive)
O=C(NCC1CCNCC1)c1cc2ccc(-c3ccc(C4CCCCC4)cc3)cc2[nH]1 | 31% (inactive)
O=C(NCC1CCNCC1)c1cc2ccc(-c3ccc(C(=O)N4CCCCCC4)cc3)cc2o1 | 0% (inactive)
O=C(NCC1CCNCC1)c1cc2cc(-c3ccc(-c4ccsc4)cc3)ccc2[nH]1 | 14% (inactive)
O=C(NCC1CCNCC1)c1cc2ccc(Oc3ccc(Oc4ccc(Cl)cc4)cc3)cc2s1 | 50% (inactive)
CCN(CC)c1ccc(-c2ccc3cc(C(=O)NCC4CCNCC4)oc3c2)cc1 | 30% (inactive)
O=C(NCC1CCNCC1)c1cc2cc(-c3ccc(N4CCOCC4)cc3)ccc2[nH]1 | 52% (inactive)
N#Cc1cccc(-c2ccc3cc(C(=O)NCC4CCNCC4)[nH]c3c2)c1 | 0% (inactive)
O=C(NCC1CCNCC1)c1cc2ccc(-c3ccsc3)cc2[nH]1 | 10% (inactive)
O=C(NCC1CCNCC1)c1cc2ccc(-c3ccc(N4CCNCC4)cc3)cc2o1 | 38% (inactive)
N#Cc1ccc(-c2ccc3[nH]c(C(=O)NCC4CCNCC4)cc3c2)cc1F | 8% (inactive)
CC(=O)Nc1ccc(-c2ccc3cc(C(=O)NCC4CCNCC4)sc3c2)cc1 | 0% (inactive)
Cc1cc(C#N)ccc1-c1ccc2[nH]c(C(=O)NCC3CCNCC3)cc2c1 | 0% (inactive)
COc1ccc(Oc2ccc3cc(C(=O)NCC4CCNCC4)oc3c2)cc1 | 24% (inactive)
O=C(NCC1CCNCC1)c1cc2ccc(-c3ccc(N4CCOCC4)cc3)cc2o1 | 40% (inactive)
O=C(NCC1CCNCC1)c1cc2cc(Nc3ccc(OC(F)(F)F)cc3)ccc2s1 | 24% (inactive)

Same assay, conditions: MBP-AF9 AHD / biotin-DOT1L peptide binding, inhibition, at 20 µM, stronger effect = higher value

inhibition [%] | Compound
22 | O=C(NCC1CCNCC1)c1cc2ccc(-c3ccc(CCO)cc3)cc2[nH]1
70 | CC(C)(C)c1ccc(-c2ccc3cc(C(=O)NCC4CCNCC4)sc3c2)cc1
49 | O=C(NCC1CCNCC1)c1cc2ccc(-c3cccc(-c4ccccc4)c3)cc2o1
54 | O=C(NCC1CCNCC1)c1cc2ccc(-c3ccc(C4CCCCC4)cc3)cc2o1
38 | N#Cc1ccc(-c2ccc3cc(C(=O)NCC4CCNCC4)oc3c2)cc1
30 | N#Cc1ccc(-c2ccc3sc(C(=O)NCC4CCNCC4)cc3c2)cc1
48 | O=C(NCC1CCNCC1)c1cc2ccc(-c3ccc(N4CCNCC4)cc3)cc2[nH]1
59 | CC(C)(C)c1ccc(-c2ccc3sc(C(=O)NCC4CCNCC4)cc3c2)cc1
